Measurements reported in patent US7498406B2, “Substantially cell membrane impermeable compound and use thereof” (priority 1999, dated 2009).

How the values were obtained:
BxPc3 = assay: Viability of cultured cells, 72 hr; format: cell-based, human; conditions: 5% FCS, 0 to 1 mM
Description: (§1) FIG. 19. Effect of GSAO on proliferation of non-endothelial cells. 15,000 BxPC-3 (part A), HT1080 (part B), 3T3 (part C) or BVSM (part D) cells per well were seeded into gelatinised 24-well culture plates and allowed to attach for 24 hr. The media was then replaced with DMEM containing 0 to 1 mM GSAO or GSAA and either 5% BCS (part D) or 5% FCS (parts A, B and C). Cells were cultured for 72 hr and then dispersed and counted. The dotted lines indicate the cell number in control wells containing DMEM and 2% BCS (part D) or 2% FCS (parts A, B and C) which represented no to limited proliferation. The data points and errors represent the mean and range of duplicate wells.
(§2) BCE (Folkman et al. 1979), BAE, BxPC-3 (ATCC, Bethesda, Md.), HT1080 (Jiang et al., 1999), 3T3 (ATCC, Bethesda, Md.) and BVSM (Hogg et al., 1997) cells were harvested and cultured as indicated. […] Cells were cultured for 0 to 72 hr in 10% CO2 at 37° C. then dispersed in trypsin/EDTA (GibcoBRL, Granc Island, N.Y.), resuspended in Coulter balanced electrolyte solution and counted with a Z1 Coulter counter (Coulter Corp., Miami, Fla.) in all experiments there were two control wells containing DMEM with 1% GPS and either 5% BCS for BCE cells, 2% BCS for BAE and BVSM cells, or 2% FCS for BxPC-3, HT1080 and 3T3 cells. […]

HT1080 = assay: Viability of cultured cells, 72 hr; format: cell-based, human; conditions: 5% FCS, 0 to 1 mM
Description: as §1, §2

Thioredoxin = molecular target: T1, Thioredoxin (Homo sapiens, UniProt P10599); assay: Inhibition of thioredoxin-mediated reduction of 70 kDa fibronectin fragment; format: biochemical; conditions: 10 μM GSAO, 1 μM thioredoxin, 10 minutes
T1 construct: purchased American Diagnostica, Greenwich, Conn; host or cells: E. coli
Description: FIG. 13. Inhibition of thioredoxin by GSAO. Thioredoxin (1 μM) was incubated with GSAO (0, 1 or 10 μM) for 10 minutes at room temperature in 20 mM Hepes, 0.14 M NaCl, pH 7.4 buffer. The 70 kDa fibronectin fragment (10 μg per mL) was added and incubated for 5 minutes at room temperature. The reactions were labelled with MPB (100 μM) for 10 minutes at 37° C. The MPB was quenched with GSH (200 μM) for 10 minutes at 37° C. followed by iodoacetamide (400 μM) for 10 minutes at room temperature. The MPB-labelled 70 kDa fragment was resolved on 5-15% SDS-PAGE, transferred to PVDF membrane and the MPB detected by blotting with streptavidin peroxidase. The positions of Mr markers are shown at left.
It was observed that thioredoxin reduced one or more protein disulfide bonds in the 70 kDa N-terminal fragment of fibronectin.

A3.01 cells = assay: Cell number and cell viability in the HIVIIIB assay; format: cell-based, human
Description: FIG. 33. […] Cells were washed and incubated in complete medium at 5% CO2 and 37° C. for up to 10 days. […] B Concentration dependence of GSAO. […] Cells were washed, incubated in complete medium at 5% CO2 and 37° C. for 3 days and the conditioned medium collected and assayed for p24 antigen.
FIG. 34. Inhibition of HIVIIIB infection of A3.01 cells by GSAO.
A3.01 human T cells were exposed to GSAO for 30 minutes and then to HTLVIIIB virus for 2 hours after which the cells were washed and then cultured for up to 10 days. HTLVIIIB and A3.01 cells were obtained from the NIH AIDS Research and Reference Reagent Program, Rockville, Mass. Virus stocks were made and infectivity titer determined using A3.01 cells and the p24 antigen assay (Coulter, Miami, Fla.). A3.01 cells were cultured in RPMI medium containing 10% fetal calf serum. […] Cell numbers and cell viability were determined at the times specified by staining cells with trypan blue and counting using a Neubauer haemacytometer. Cell viability was measured as a percentage of live cells to total cells.

T1 sequence (P10599 whole entry, the tested form may be a part): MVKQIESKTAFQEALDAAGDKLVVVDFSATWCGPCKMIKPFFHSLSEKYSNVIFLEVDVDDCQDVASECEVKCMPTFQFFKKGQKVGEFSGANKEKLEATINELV

Compound	Viability IC50 (BxPc3)	Viability IC50 (HT1080)	inhibition of thioredoxin activity (Thioredoxin)	effect on cell proliferation (A3.01 cells; 10 μM in the culture medium)	effect on cell viability (A3.01 cells; 10 μM in the culture medium)	effect on cell proliferation or cell viability (A3.01 cells; up to 100 μM, pre-incubation only)
N[C@@H](CCC(=O)N[C@@H](CSCC(=O)Nc1ccc([As](=O)(O)O)cc1)C(=O)NCC(=O)O)C(=O)O [GSAA, 4-(N-(S-glutathionylacetyl)amino)phenylarsonic acid, reference compound]	no significant effect	no significant effect				
NC(CCC(=O)NC(CSCC(=O)Nc1ccc([As]=O)cc1)C(=O)NCC(=O)O)C(=O)O (stereo not drawn) [GSAO, 4-(N-(S-glutathionylacetyl)amino)-phenylarsenoxide]			completely inhibited	small inhibitory effect on cell proliferation	no effect on cell viability	no effect on cell proliferation or cell viability
